Series [1] addresses T1, Sodium/glucose cotransporter 2 (Homo sapiens, UniProt P31639).
T1 sequence (P31639 whole entry): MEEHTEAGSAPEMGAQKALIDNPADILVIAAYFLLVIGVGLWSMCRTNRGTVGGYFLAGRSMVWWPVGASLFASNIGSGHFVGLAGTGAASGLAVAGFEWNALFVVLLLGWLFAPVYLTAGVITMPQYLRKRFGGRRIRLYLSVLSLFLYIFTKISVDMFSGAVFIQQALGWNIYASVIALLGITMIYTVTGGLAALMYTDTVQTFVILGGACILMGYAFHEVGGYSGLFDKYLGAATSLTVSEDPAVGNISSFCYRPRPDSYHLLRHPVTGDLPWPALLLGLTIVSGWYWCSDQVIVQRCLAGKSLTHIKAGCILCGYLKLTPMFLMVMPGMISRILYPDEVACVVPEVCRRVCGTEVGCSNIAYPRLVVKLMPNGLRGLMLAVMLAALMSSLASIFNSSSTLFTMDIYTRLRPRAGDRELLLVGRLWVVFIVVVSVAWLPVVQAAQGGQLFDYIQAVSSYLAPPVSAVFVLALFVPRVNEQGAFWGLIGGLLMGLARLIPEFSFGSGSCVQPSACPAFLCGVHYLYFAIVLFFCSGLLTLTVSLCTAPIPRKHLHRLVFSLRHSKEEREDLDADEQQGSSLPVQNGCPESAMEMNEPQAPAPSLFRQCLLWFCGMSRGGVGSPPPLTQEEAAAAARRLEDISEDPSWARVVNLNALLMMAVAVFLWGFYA
Put plainly: Inhibition of human SGLT2 expressed in CHO cells assessed as inhibition of methyl alpha-D-glucopyranoside uptake after 1 hr. The format is cell-based.

The nature of series [2]: Lipophilicity, log D of the compound. The following applies: octanol/water. The format is physicochemical.
In series [3] the target is T2, Sodium/glucose cotransporter 1 (Homo sapiens, UniProt P13866).
T2 sequence (P13866 whole entry): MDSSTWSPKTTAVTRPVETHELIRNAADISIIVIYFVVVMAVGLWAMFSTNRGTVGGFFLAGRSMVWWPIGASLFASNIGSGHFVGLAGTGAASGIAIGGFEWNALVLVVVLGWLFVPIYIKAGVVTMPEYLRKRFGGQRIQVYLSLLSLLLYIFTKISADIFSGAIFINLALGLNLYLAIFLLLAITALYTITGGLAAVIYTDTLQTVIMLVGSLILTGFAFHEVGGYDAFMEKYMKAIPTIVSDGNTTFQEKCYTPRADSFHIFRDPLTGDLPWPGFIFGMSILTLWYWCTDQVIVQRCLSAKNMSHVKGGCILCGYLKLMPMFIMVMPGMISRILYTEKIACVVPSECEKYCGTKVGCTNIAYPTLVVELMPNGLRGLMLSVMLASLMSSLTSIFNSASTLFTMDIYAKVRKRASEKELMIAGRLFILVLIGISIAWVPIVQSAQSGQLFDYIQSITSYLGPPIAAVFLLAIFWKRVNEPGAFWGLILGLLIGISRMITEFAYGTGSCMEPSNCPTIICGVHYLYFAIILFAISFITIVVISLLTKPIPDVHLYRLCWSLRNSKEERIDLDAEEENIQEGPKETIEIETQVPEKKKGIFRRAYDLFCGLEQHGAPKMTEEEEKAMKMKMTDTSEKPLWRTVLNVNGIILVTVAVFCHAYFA
Nature of the series: Inhibition of human SGLT1 expressed in CHO cells assessed as inhibition of methyl alpha-D-glucopyranoside uptake after 1 hr. The format is cell-based.

Series [4] is described as follows: Apparent intrinsic clearance in human liver microsomes assessed per mg of protein. The format is ADME, Microsome.
Series [5] can be described thus: Apparent intrinsic clearance in human hepatocytes assessed per million of cells. The format is ADME, cell-based, Liver, Hepatocyte.
Series [6] can be described thus: Half life in Sprague-Dawley rat at 2 mg/kg, iv. It is filed as ADME, organism-based. The settings on record: in vivo. More on the design: dose 2 mg/kg, route intravenous.
Series [7] is described as follows: Renal clearance in Sprague-Dawley rat at 2 mg/kg, iv. The format is ADME, organism-based, Kidney. The following applies: in vivo. Also noted: dose 2 mg/kg, route intravenous.
A further series concerns Rattus norvegicus. Put plainly: Hepatic clearance in Sprague-Dawley rat at 2 mg/kg, iv. Also noted: dose 2 mg/kg, route intravenous. The format is ADME, organism-based, Liver. The following applies: in vivo.
The test system of series [8] is Plasma. Nature of the series: Fraction unbound in rat plasma at 1000 ng/mL by equilibrium dialysis method. The format is ADME, cell-free.
Series [9] has as its system Plasma. Put plainly: Fraction unbound in human plasma at 1000 ng/mL by equilibrium dialysis method. The format is ADME, cell-free.

Regarding `CCOc1ccc(Cc2cc([C@]34OC[C@](CO)(O3)[C@@H](O)[C@H](O)[C@@H]4O)ccc2Cl)cc1`, the IC50 in series [1] is 0.0899 µM; in series [3] it was > 10 µM. Moreover, the logD in series [2] came out at 3.8.
Regarding `COc1ccc(Cc2cc([C@]34OC[C@](CO)(O3)[C@@H](O)[C@H](O)[C@H]4O)ccc2Cl)cc1`, the microsomal CLint in [4] was found to be 9.2 µL/min/mg. For the same compound, the hepatocyte CLint in [5] is 2 µL/min/1e6 cells. Further, in series [1], the 50% inhibitory concentration (IC50) was 0.000882 µM. This compound also gave a half-life in series [6] of 1.6 h. Moreover, in series [2], the logD amounted to 3.2.
In the case of `COc1ccc(Cc2cc([C@@H]3OC4(COC4)[C@@H](O)[C@H](O)[C@H]3O)ccc2C)cc1`, the microsomal CLint in series [4] was found to be 12 µL/min/mg. The compound further came in with a CL renal in [7] of 1.8 mL/min/kg. Further, in [5], the hepatocyte CLint was 44 µL/min/1e6 cells. For the same compound, in the series with Rattus norvegicus, the CL was 20.5 mL/min/kg. Also, the IC50 in [1] is 0.00698 µM. Besides, in series [6], the half-life is 1.9 h. In series [2], this compound came in with a logD of 3.
For the compound `COc1ccc(Cc2cc([C@]34OC[C@](CO)(O3)[C@@H](O)[C@H](O)[C@H]4O)ccc2C)cc1`, the microsomal CLint in [4] was < 8 µL/min/mg. Besides, the Fu in the series with Plasma [8] amounted to 18.6%; in the series on Plasma [9], 20.6%. For the same compound, the hepatocyte CLint in [5] was found to be 2.1 µL/min/1e6 cells. For the same compound, the IC50 turned out to be 0.00107 µM in series [1] and 0.506 µM in series [3]. This compound also yielded a pH-dependent lipophilicity (logD) in [2] of 2.6.
In the case of `CCc1ccc(Cc2cc([C@@H]3OC4(CNC4)[C@@H](O)[C@H](O)[C@H]3O)ccc2C)cc1`, the microsomal CLint in series [4] came out at 32 µL/min/mg. In addition, the intrinsic metabolic clearance (hepatocyte CLint) in [5] is < 2 µL/min/1e6 cells. The compound further yielded a pH-dependent lipophilicity (logD) in series [2] of 3.2.
Turning to `COc1ccc(Cc2cc([C@@H]3O[C@H](CO)[C@@H](O)[C@H](O)[C@H]3O)ccc2Cl)cc1`, the microsomal CLint in series [4] is < 9 µL/min/mg. Also, the hepatocyte CLint in series [5] was < 2 µL/min/1e6 cells. For the same compound, the log distribution coefficient (logD) in series [2] amounted to 3.
Turning to `COc1ccc(Cc2cc([C@]34OC[C@](CO)(O3)[C@@H](O)[C@H](O)[C@@H]4O)ccc2Cl)cc1`, in series [4], the microsomal CLint was determined as 15 µL/min/mg. In addition, the intrinsic clearance (hepatocyte CLint) in series [5] was 2.3 µL/min/1e6 cells. Also, the IC50 was 0.0431 µM in series [1] and > 10 µM in series [3]. This compound also had a log distribution coefficient (logD) in series [2] of 3.9.
`COc1ccc(Cc2cc([C@@H]3O[C@H](CO)[C@@H](O)[C@H](O)[C@H]3O)ccc2C)cc1`: the microsomal CLint in [4] was < 8 µL/min/mg. Further, the hepatocyte CLint in [5] turned out to be 3.4 µL/min/1e6 cells. This compound displayed a pH-dependent lipophilicity (logD) in [2] of 2.4.
Take `CCOc1ccc(Cc2cc([C@]34OC[C@](CO)(O3)[C@@H](O)[C@H](O)[C@H]4O)ccc2C)cc1`: in series [4], the microsomal CLint turned out to be 8.9 µL/min/mg. In addition, the hepatocyte CLint in series [5] came out at 2 µL/min/1e6 cells. Also, the IC50 was 0.00111 µM in series [1] and 0.958 µM in series [3]. In series [2], this compound gave a logD of 3.

The values are drawn from ChEMBL document CHEMBL1770065, “Discovery of a clinical candidate from the structurally unique dioxa-bicyclo[3.2.1]octane class of sodium-dependent glucose cotransporter 2 inhibitors” (J Med Chem, 2011).
